Laboratory results reported in publication PMC5458052 (Nature Communications, 2017).
Several values for one entry are separate records, joined by “and”; a condition that tells them apart may be missing. Identical values can stand only once. Like-named read-outs stand apart in the source and are kept apart here.

Tests used:
[1] = Rat PK iv 1 mg/kg (Chem Partners); settings: in vivo
[2] = In vitro intrinsic clearance, rat liver microsomes (Chem Partners); format: in vitro ADME; settings: rat (R) liver microsomes
P. falciparum 3D7 = assay: In vitro antimalarial activity, drug sensitivity testing (3D7); format: cell-based; settings: Plasmodium falciparum
[3] = Rat blood stability in vitro; settings: male, Sprague Dawley, freshly collected whole blood
[4] = In vitro intrinsic clearance, human liver microsomes (Chem Partners); format: in vitro ADME; settings: human (H) liver microsomes
[5] = Metabolic stability and metabolite profile in rat liver microsomes; format: in vitro ADME; settings: for Relative Peak Area (expressed as % total metabolite peak area generated over 60 minutes): metabolite of E209, rat liver microsomes with NADPH; for Degradation half-life / In vitro CLint / Microsome-Predicted EH: rat liver microsomes
[6] = Metabolic stability and metabolite profile in human liver microsomes; settings: for Relative Peak Area (expressed as % total metabolite peak area generated over 60 minutes): metabolite of E209, human liver microsomes with NADPH; for In vitro CLint / Microsome-Predicted EH / Degradation half-life: human liver microsomes
[7] = Metabolic stability and metabolite profile in mouse liver microsomes; format: in vitro ADME; settings: for Relative Peak Area (expressed as % total metabolite peak area generated over 60 minutes): metabolite of E209, mouse liver microsomes with NADPH; for Degradation half-life / In vitro CLint / Microsome-Predicted EH: mouse liver microsomes
[8] = test system: P. falciparum lab lines FC27 and K1; assay: microbe, parasite or virus in culture; format: cell-based; settings: Plasmodium falciparum, median of 3 independent experiments
[9] = test system: P. vivax clinical field isolates; assay: microbe, parasite or virus in culture; format: cell-based; settings: Plasmodium vivax, read-out: Median IC50
[10] = test system: P. falciparum clinical field isolates; assay: microbe, parasite or virus in culture; format: cell-based; settings: Plasmodium falciparum, read-out: Median IC50
P. berghei [11] = test system: P. berghei; design: species or system Plasmodium berghei
P. berghei [12] = test system: P. berghei; design: method as in Charman et al. 12; settings: ref Charman et al. 12, cited from earlier work
[13] = test system: P. falciparum strain 3D7A; design: method as in PMID 22383983; settings: cited from earlier work
[14] = Solubility at 37°C over a 6 hour incubation; format: physicochemical; settings: free base equivalent
[15] = Mammalian cell cytotoxicity; format: cell-based; settings: human; HeLa cells, n=3; read-out: cytotoxicity median IC50
[16] = test system: African variant G6PD deficient human red blood cells (huRBC); settings: 7 days post-treatment; E209 up to 50 mg kg^−1 day^−1 for 3 days; PQ 25 mg/kg/day for 3 days
[17] = test system: P. falciparum strains (sensitive and resistant); assay: microbe, parasite or virus in culture; format: cell-based; settings: Plasmodium falciparum, mean ± SD n=3
[18] = 10 × IC50, previous results on standard anti-malarials

## FC1(F)CCN(CCOc2ccc(C3CCC4(CC3)OOC3(OO4)C4CC5CC(C4)CC3C5)cc2)CC1 (stereo not shown) [Compound 8]
[1]
  clearance: 1.3 mL/min/kg
  half-life: 2.8 h
[2]
  CLint scaled: 60 mL/min/kg
P. falciparum 3D7
  IC50: 8.5 ± 0.6 nM
[3]
  half-life at 1 µM: 16 h
[4]
  CLint scaled: 107 mL/min/kg

## OC1CCC(c2ccc(OCCN3CCC(F)CC3)cc2)CC1 (stereo not shown) [Compound M-180]
[5]
  Relative Peak Area (expressed as % total metabolite peak area generated over 60 minutes): 9%
[6]
  Relative Peak Area (expressed as % total metabolite peak area generated over 60 minutes): 10%
[7]
  Relative Peak Area (expressed as % total metabolite peak area generated over 60 minutes): 20%

## OC(c1cc(C(F)(F)F)nc2c(C(F)(F)F)cccc12)C1CCCCN1 (stereo not shown) [Mefloquine, mefloquine]
[8]; K1, FC27 (CQ S) lab line
  IC50: 56.2 nM
[9]
  IC50: 18 nM
[10]
  IC50: 12.7 nM

## CS(=O)(=O)N1CCN(CCOc2ccc(C3CCC4(CC3)OOC3(OO4)C4CC5CC(C4)CC3C5)cc2)CC1 (stereo not shown) [Compound 6]
P. berghei [11]
  In vivo (Pb) MSD (days) at 1 x 30 mg/kg: 19 days and 19.3 (14, 30,14) days
[1]
  clearance: 3.5 mL/min/kg
  half-life: 3.2 h
[2]
  CLint scaled: 38 mL/min/kg
P. falciparum 3D7
  IC50: 3.5 ± 0.2 nM
[3]
  half-life at 1 µM: 12 h
[4]
  CLint scaled: 257 mL/min/kg

## CCN(CC)Cc1cc(Nc2ccnc3cc(Cl)ccc23)ccc1O [Amodiaquine, amodiaquine]
[8]; K1, FC27 (CQ S) lab line
  IC50: 33.1 nM
[8]; K1, K1 (CQ R) lab line
  IC50: 39.3 nM
[9]
  IC50: 50.6 nM
[10]
  IC50: 25.6 nM

## c1cc([C@H]2CC[C@]3(CC2)OO[C@]2(O3)C3CC4CC(C3)CC2C4)ccc1OCCN1CCOCC1 [OZ439]
P. falciparum 3D7
  IC50: 5.1 ± 0.81 nM
P. berghei [12]; animals cured of n=3, single oral dose 30 mg/kg
  cures: 3
P. berghei [12]; single oral dose 30 mg kg^-1, P. berghei infected mice
  In vivo (Pb) MSD (days) at 1 x 30 mg/kg: 30 days

## O=C1C(O)=C([C@H]2CC[C@H](c3ccc(Cl)cc3)CC2)C(=O)c2ccccc21 [Atovaquone, atovaquone]
[13]; [18]
  Lag phase: 48 h
  Log PRR: 2.9
  PCT 99.9 %: 81 h
  Slope: −0.060

## CS(=O)(=O)O.c1cc(C2CCC3(CC2)OOC2(OO3)C3CC4CC(C3)CC2C4)ccc1CN1CCOCC1 (stereo not shown) [N205 mesylate]
[14]; 0.01 N HCl, media pH 2.0, 37°C, 1 h
  Solubility: 250 µg/mL
[14]; 0.01 N HCl, media pH 2.0, 37°C, 4 h
  Solubility: 172 µg/mL
[14]; 0.01 N HCl, media pH 2.0, 37°C, 6 h
  Solubility: 155 µg/mL
[14]; 0.1 N HCl, media pH 1.0, 37°C, 1 h
  Solubility: 21.2 µg/mL
[14]; 0.1 N HCl, media pH 1.0, 37°C, 4 h
  Solubility: 17.2 µg/mL
[14]; 0.1 N HCl, media pH 1.0, 37°C, 6 h
  Solubility: 16.0 µg/mL
[14]; FaSSIF blank, 37°C, 1 h
  Solubility: < 0.1 µg/mL
[14]; FaSSIF blank, 37°C, 4 h
  Solubility: < 0.1 µg/mL
[14]; FaSSIF blank, 37°C, 6 h
  Solubility: < 0.1 µg/mL
[14]; FaSSIF, media pH 6.5, 37°C, 1 h
  Solubility: 24.0 µg/mL
[14]; FaSSIF, media pH 6.5, 37°C, 4 h
  Solubility: 18.1 µg/mL
[14]; FaSSIF, media pH 6.5, 37°C, 6 h
  Solubility: 26.7 µg/mL
[14]; FeSSIF blank, 37°C, 1 h
  Solubility: 2.3 µg/mL
[14]; FeSSIF blank, 37°C, 4 h
  Solubility: 0.9 µg/mL
[14]; FeSSIF blank, 37°C, 6 h
  Solubility: 1.2 µg/mL
[14]; FeSSIF, media pH 5.0, 37°C, 1 h
  Solubility: 1089 µg/mL
[14]; FeSSIF, media pH 5.0, 37°C, 4 h
  Solubility: 755 µg/mL
[14]; FeSSIF, media pH 5.0, 37°C, 6 h
  Solubility: 783 µg/mL
[14]; Phosphate buffer, media pH 7.4, 37°C, 1 h
  Solubility: < 0.1 µg/mL
[14]; Phosphate buffer, media pH 7.4, 37°C, 4 h
  Solubility: < 0.1 µg/mL
[14]; Phosphate buffer, media pH 7.4, 37°C, 6 h
  Solubility: < 0.1 µg/mL

## c1cc(C2CCC3(CC2)OOC2(OO3)C3CC4CC(C3)CC2C4)ccc1OCCCN1CCOCC1 (stereo not shown) [Compound 5]
P. berghei [11]
  In vivo (Pb) MSD (days) at 1 x 30 mg/kg: 16 days
[1]
  clearance: 6.5 mL/min/kg
  half-life: 1.5 h
[2]
  CLint scaled: 75 mL/min/kg
P. falciparum 3D7
  IC50: 7.5 ± 0.2 nM
[3]
  half-life at 1 µM: 15 h
[4]
  CLint scaled: 147 mL/min/kg

## O=C1CCC(c2ccc(OCCN3CCC(F)CC3)cc2)CC1 [Compound M-182]
[5]
  Relative Peak Area (expressed as % total metabolite peak area generated over 60 minutes): 13%
[6]
  Relative Peak Area (expressed as % total metabolite peak area generated over 60 minutes): 11%
[7]
  Relative Peak Area (expressed as % total metabolite peak area generated over 60 minutes): 27%

## C[C@H]1[C@@H](O)O[C@@H]2O[C@@]3(C)CC[C@H]4[C@H](C)CC[C@@H]1[C@@]24OO3 [DHA, dihydroartemisinin, reference compound]
[15]
  IC50: 400 nM

## COc1cc(NC(C)CCCN)c2ncccc2c1 (stereo not shown) [primaquine, reference compound]
[16]
  loss of huRBC: induced significant loss of huRBC

## C[C@@H]1CC[C@H]2[C@@H](C)C(=O)O[C@@H]3O[C@@]4(C)CC[C@@H]1[C@]32OO4 [Artemisinin, artemisinin]
[13]
  Lag phase: 0 h
  Log PRR: > 4.8
  PCT 99.9 %: < 24 h
  Slope: −0.101

## Clc1ccc2c(N3CCN(CCCN4CCN(c5ccnc6cc(Cl)ccc56)CC4)CC3)ccnc2c1 [Piperaquine, piperaquine]
[8]; K1, FC27 (CQ S) lab line
  IC50: 54.6 nM
[8]; K1, K1 (CQ R) lab line
  IC50: 75.5 nM
[9]
  IC50: 33.8 nM
[10]
  IC50: 35.6 nM

## CS(=O)(=O)N1CCN(CCCOc2ccc(C3CCC4(CC3)OOC3(OO4)C4CC5CC(C4)CC3C5)cc2)CC1 (stereo not shown) [Compound 7]
P. berghei [11]
  In vivo (Pb) MSD (days) at 1 x 30 mg/kg: 14 (14, 14, 14) days
[1]
  clearance: 3.5 mL/min/kg
  half-life: 3.2 h
[2]
  CLint scaled: 29 mL/min/kg
P. falciparum 3D7
  IC50: 3.7 ± 0.1 nM
[3]
  half-life at 1 µM: 15 h
[4]
  CLint scaled: 238 mL/min/kg

## c1cc(C2CCC3(CC2)OOC2(OO3)C3CC4CC(C3)CC2C4)ccc1CN1CCOCC1 (stereo not shown) [Compound N205]
[5]; substrate 1 µM
  Degradation half-life: 0.25 h
  In vitro CLint: 118 µL/min/mg protein
  Microsome-Predicted EH: 0.75
[5]; substrate 5 µM
  Degradation half-life: 0.333 h
  In vitro CLint: 89 µL/min/mg protein
  Microsome-Predicted EH: 0.69
[6]; substrate 1 µM
  In vitro CLint: 51 µL/min/mg protein
  Microsome-Predicted EH: 0.67
[6]; substrate 1 µM, NADPH-dependent
  Degradation half-life: 0.567 h
[6]; substrate 5 µM
  Degradation half-life: 0.717 h
  In vitro CLint: 41 µL/min/mg protein
  Microsome-Predicted EH: 0.62
[7]; substrate 1 µM
  Degradation half-life: 0.8 h
  In vitro CLint: 37 µL/min/mg protein
  Microsome-Predicted EH: 0.44
[7]; substrate 5 µM
  Degradation half-life: 1.45 h
  In vitro CLint: 20 µL/min/mg protein
  Microsome-Predicted EH: 0.30

## c1cc(C2CCC3(CC2)OOC2(OO3)C3CC4CC(C3)CC2C4)ccc1OCCN1CCOCC1 (stereo not shown) [Compound 4]
[1]
  clearance: 7.1 mL/min/kg
  half-life: 1.1 h
[2]
  CLint scaled: 86 mL/min/kg
P. falciparum 3D7
  IC50: 10 ± 1 nM
[3]
  half-life at 1 µM: 14 h
[4]
  CLint scaled: 135 mL/min/kg

## [O-][N+]1(CCOc2ccc(C3CCC4(CC3)OOC3(OO4)C4CC5CC(C4)CC3C5)cc2)CCC(F)CC1 (stereo not shown) [M+16 (IV)]
[5]
  Relative Peak Area (expressed as % total metabolite peak area generated over 60 minutes): 50%
[6]
  Relative Peak Area (expressed as % total metabolite peak area generated over 60 minutes): 4%
[7]
  Relative Peak Area (expressed as % total metabolite peak area generated over 60 minutes): 9%

## CCc1nc(N)nc(N)c1-c1ccc(Cl)cc1 [Pyrimethamine, pyrimethamine]
[13]; [18]
  Lag phase: 24 h
  Log PRR: 3.7
  PCT 99.9 %: 57 h
  Slope: −0.077

## CCN(CC)CCCC(C)Nc1ccnc2cc(Cl)ccc12 (stereo not shown) [Chloroquine, chloroquine]
[13]
  Lag phase: 0 h
  PCT 99.9 %: 34 h
  Slope: −0.094
[17]; DD2, strain Dd2 (chloroquine resistant)
  IC50: 150 ± 25.7 nM
[17]; HB3, strain HB3 (chloroquine sensitive)
  IC50: 9 ± 1.5 nM
[17]; NF54, strain NF54 (chloroquine sensitive)
  IC50: 5.9 ± 1 nM
[17]; TM90C2B, strain TM90C2B (chloroquine resistant)
  IC50: 121 ± 20.6 nM
[17]; strain 7G8 (chloroquine resistant)
  IC50: 55 ± 9.4 nM
[17]; strain D6 (chloroquine sensitive)
  IC50: 8.6 ± 1.5 nM
[17]; strain FCB (chloroquine resistant)
  IC50: 66 ± 11.3 nM
[17]; strain K1 (chloroquine resistant)
  IC50: 173 ± 29.5 nM
[17]; strain V1/S (chloroquine resistant)
  IC50: 194 ± 33 nM
[8]; K1, K1 (CQ R) lab line
  IC50: 212 nM
[9]
  IC50: 147 nM
[10]
  IC50: 85.5 nM
